Experimental data as given in BindingDB's records for doi:10.3109/14756366.2010.482529 (Yonsei University, 2010).

target: T1, Polyphenol oxidase 1 (White button mushroom, UniProt Q00024); test: In Vitro Tyrosinase Inhibition Assay; details: pH 6.8; 25 °C
T1 sequence (Q00024 whole entry): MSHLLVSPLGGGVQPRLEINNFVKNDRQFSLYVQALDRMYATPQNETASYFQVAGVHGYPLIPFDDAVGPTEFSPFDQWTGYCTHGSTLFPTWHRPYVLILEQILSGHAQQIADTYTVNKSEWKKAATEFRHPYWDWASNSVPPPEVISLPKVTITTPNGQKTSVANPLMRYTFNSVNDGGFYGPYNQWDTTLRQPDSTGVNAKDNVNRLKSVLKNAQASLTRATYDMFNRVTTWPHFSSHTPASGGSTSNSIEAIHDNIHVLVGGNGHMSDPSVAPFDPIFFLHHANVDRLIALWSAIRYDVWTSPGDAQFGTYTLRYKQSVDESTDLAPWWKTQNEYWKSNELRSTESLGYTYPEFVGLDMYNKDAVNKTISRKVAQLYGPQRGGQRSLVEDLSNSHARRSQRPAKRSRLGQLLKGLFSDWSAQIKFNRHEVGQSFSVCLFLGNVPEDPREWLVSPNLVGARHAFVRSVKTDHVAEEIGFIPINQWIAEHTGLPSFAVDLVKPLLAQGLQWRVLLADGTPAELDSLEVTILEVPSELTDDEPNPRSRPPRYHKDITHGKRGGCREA
Protocol: Tyrosinase inhibition assays were performed in a 96-well microplate format using the SpectraMax 340 microplate reader (Molecular Devices, CA) according to the method developed by Hearing [Khan et al., Pure Appl. […] First the samples were screened for the o-diphenolase inhibitory activity of mushroom tyrosinase (Lyophilised, ≥2000 units/mg, Sigma, […], USA) using L-3,4-dihydroxyphenylalanine (L-DOPA) (Sigma) as substrate. All the active samples from the preliminary screening were subjected to half maximal inhibitory concentration (IC50) studies. The samples were dissolved in methanol/DMSO to a final concentration of 0.5%. […] Then the L-DOPA (0.5 mM) was added to the reaction mixture and the reaction was monitored by measuring the change in absorbance at 475 nm (at 37°C) due to the formation of the DOPA chrome for 10 min.

SMILES	IC50 [µM]
N[C@@H](Cn1ccc(=O)c(O)c1)C(=O)O	3.68
O=C(Oc1ccc([N+](=O)[O-])cc1)c1ccc([N+](=O)[O-])cc1C(F)(F)F [4-Nitro-phenyl-(4-nitro-2-trifluoromethyl)-benzoate (6)]	29.7
O=C(NCCBr)c1cc([N+](=O)[O-])cc([N+](=O)[O-])c1 [N-(2-Bromo-ethyl)-3,5-dinitro-benzamide (8)]	3.08
O=C(NCCO)c1cc([N+](=O)[O-])cc([N+](=O)[O-])c1 [N-(2-Hydroxy-ethyl)-3,5-dinitro-benzamide (7)]	1.09
Cc1ccc(C(=O)N(C)O)cc1 [N-Hydroxy-4,N-dimethyl-benzamide (9)]	2.09

Results, then the compound that gave them:

IC50 [µM]	SMILES
14.8	CC(C)=CCOC(=O)c1ccc(O)cc1 [3-Methyl-2-butenyl-4-hydroxybenzoate (2)]
83.4	CC(C)=CCOC(=O)c1ccccc1 [3-Methyl-2-butenylbenzoate (1)]
11.8	CCNC(=O)c1ccccc1 [N-Ethyl-benzamide (10)]
